# Laboratory results from patent publication US20230285576A1, “TREATMENT OF CANCER USING A CYCLODEXTRIN-CONTAINING POLYMER-TOPOISOMERASE INHIBITOR CONJUGATE AND A PARP INHIBITOR” (ELLIPSES PHARMA LTD, priority 2020, published 2023).
# Read-outs that look alike come from different tables or passages of the source.
# Tests used:
# [1] = test system: carbonic anhydrase 9 (CA9); test: CA9 immunostaining in HT-29 colorectal xenograft tumours; format: in vivo, nude mouse; conditions: 7 days after a single IV treatment; CRLX-101 5 mg/kg, CPT 0.5 mg/kg
# Text: Tumours were harvested 7 days after treatment and immunostained with anti-CA9 antibody. Scale bar=50 μm.
# [2] = test system: Capan-1; test: MTS viability assay, CRLX-101 alone and with Olaparib, Capan-1 (schedule 1); format: cell-based; conditions: Homo sapiens, 72 hours, Olaparib alone
# Protocol: (§1) The optimal seeding density for each cell line (DU145, Capan-1, Hs 766T, PANC-1, NUGC4, HEY, OVCAR3, OAW28 and NCI-H510A) will be determined prior to running the assay. Cells will be seeded in 50 μL media (in triplicate for each condition). Three 96 well flat bottom tissue culture plates will be required per cell line (See appendix I). Cells will be allowed to adhere overnight at 37° C., 5% CO2, 20% O2 before compound is added.
# (§2) Day 5: Analysis of Proliferation • Remove plates from the incubator and perform a Cell Titre 96 Aqueous One Solution Cell Proliferation Assay (Promega #G3582) according to the manufacturers protocol. • Record absorbance at 490 nm using colorimetric plate reader.
# [3] = test system: Capan-1; test: MTS viability assay, CRLX-101 alone and with Olaparib, Capan-1 (schedule 2); format: cell-based; conditions: Homo sapiens
# Protocol: as §1, §2
# [4] = test system: PANC-1; test: MTS viability assay, CRLX-101 alone and with Olaparib, PANC-1; format: cell-based; conditions: Homo sapiens, 72 hours, Olaparib alone
# Protocol: as §1, §2
# [5] = test system: Hs 766T; test: MTS viability assay, CRLX-101 alone and with Olaparib, Hs 766T; format: cell-based; conditions: Hs766T, 72 hours, Olaparib alone, read-out: IC50 relative
# Protocol: as §1, §2
# [6] = test system: NCI-H510A; test: MTS viability assay, CRLX-101 alone and with Olaparib, NCI-H510A; format: cell-based; conditions: Homo sapiens, 72 hours, Olaparib alone, read-out: IC50 relative
# Protocol: as §1, §2
# [7] = test system: NCI-H417a small-cell lung cancer tumour; format: in vivo; conditions: wild type BRCA1 and BRCA2
# [8] = test system: NUGC4; test: MTS viability assay, CRLX-101 alone and with Olaparib, NUGC4; format: cell-based; conditions: Homo sapiens, NUGC-4, 72 hours, Olaparib alone, read-out: IC50 relative
# Protocol: as §1, §2
# [9] = test system: DU145; test: MTS viability assay, CRLX-101 alone and with Olaparib, DU145; format: cell-based; conditions: Homo sapiens, DU-145, 72 hours, Olaparib alone
# Protocol: as §1, §2
# [10] = test system: OVCAR3; test: MTS viability assay, CRLX-101 alone and with Olaparib, OVCAR3; format: cell-based; conditions: Homo sapiens, OVCAR-3, 72 hours, Olaparib alone
# Protocol: as §1, §2
# [11] = test system: OAW28; test: MTS viability assay, CRLX-101 alone and with Olaparib, OAW28; format: cell-based; conditions: Homo sapiens, OAW-28, 72 hours, Olaparib alone, read-out: IC50 relative
# Protocol: as §1, §2
# [12] = test system: SKOV-3 human ovarian xenograft; conditions: CRLX-101 9 mg/kg and/or Paclitaxel 30 mg/kg, QW × 3 IV
# Text: Body weight curves are means relative to the initial body weight, with bars indicating standard deviation. Survival is indicated as the percentage of animals remaining on study because mice bearing tumours that reached a predetermined cut off size (1500 mm3) were removed from the experiment.
# [13] = test system: HIF-1α; test: HIF-1α protein levels after CRLX-101 alone or combined with antiangiogenic drugs in A2780 ovarian tumour model; format: in vivo, athymic nude mice; conditions: for HIF-1Q % of Control mean + SD: CRLX-101 5 mg/kg QW × 2, n=3
# [14] = test system: HIF-2α; test: Time course of HIF-2α inhibition in xenograft tumours (western blot); format: in vivo, nude mouse; conditions: single dose; same time period
# Protocol: Tumours were flash-frozen and HIF-1α or HIF-2α protein levels were measured via western blot analysis, quantified using infrared fluorescence detection, normalised to actin levels and calculated as a percentage of HIF protein levels in saline-treated mice.
# [15] = test system: SUM159 tumours; test: Tumour growth and tumour-initiating capacity in orthotopic SUM159 triple-negative breast cancer model; format: in vivo, mice; conditions: pre-treatment for 2 weeks
# Text: Such stimulation of CSCs could increase drug resistance and metastasis, and may be further enhanced by treatment with antiangiogenic drugs, which can increase tumour hypoxia by reducing blood flow to tumours. Inhibition of HIF-1α might therefore be beneficial to patients by reducing CSCs in tumours. […] Previously published studies have shown that Bevacizumab increases the CSC population mediated primarily by hypoxia induced up-regulation of HIF-1α. […] At the end of these 2 weeks, tumours were extracted and 100 tumour cells were implanted orthotopically into new, untreated mice.
# Mice were dosed for two weeks at the dose level and frequency indicated in the legend. Tumour growth curves represent mean tumour volume and error bars represent standard deviation.
# [16] = Mus musculus, A2780, read-out: HIF-1Q % of Control mean + SD
compound,measurement,setting,value
"CC[C@@]1(O)C(=O)OCc2c1cc1n(c2=O)Cc2cc3ccccc3nc2-1 [CPT, 20(S)-Camptothecin]",Inhibition of CA9 in tumours,[1],not
"O=C(c1cc(Cc2n[nH]c(=O)c3ccccc23)ccc1F)N1CCN(C(=O)C2CC2)CC1 [Olaparib, 4-[3-(4-cyclopropanecarbonyl-piperazine-1-carbonyl)-4-fluoro-benzyl]-2H-phthalazin-1-one]",IC50,[2]; read-out: IC50 Absolute,40.1 µM
same,IC50,[2]; read-out: IC50 relative,5.71 µM
same,IC50,"[3]; CAPAN-1, read-out: IC50 relative",0.00546 µM
same,IC50,"[3]; Capan-1 (schedule 2), Olaparib alone, read-out: IC50 Absolute",488 µM
same,IC50,[4]; read-out: IC50 Absolute,79.2 µM
same,IC50,[4]; read-out: IC50 relative,9.26 µM
same,IC50,[5],14.1 µM
same,IC50,[6],2.66 µM
same,Response of the model to monotherapy,[7],relatively non-responsive
same,IC50,[8],~11.5 µM
same,IC50,[9]; read-out: IC50 Absolute,93.1 µM
same,IC50,[9]; read-out: IC50 relative,11.6 µM
same,IC50,[10]; read-out: IC50 Absolute,43.4 µM
same,IC50,[10]; read-out: IC50 relative,3.03 µM
same,IC50,[11],~8.88 µM
CC(=O)O[C@H]1C(=O)[C@@]2(C)[C@H]([C@H](OC(=O)c3ccccc3)[C@]3(O)C[C@H](OC(=O)[C@H](O)[C@@H](NC(=O)c4ccccc4)c4ccccc4)C(C)=C1C3(C)C)[C@]1(OC(C)=O)CO[C@@H]1C[C@@H]2O [Paclitaxel],CR (complete regressions),[12]; N=10,1
same,PR (partial regressions),[12]; N=10,0
same,TFS (tumour-free survivors),[12]; N=10,1
same,Median TTE,"[12]; endpoint 1500 mm3, N=10",42.8 days
same,TGD,[12]; vs control group,18%
Cc1ccc(Nc2nccc(N(C)c3ccc4c(C)n(C)nc4c3)n2)cc1S(N)(=O)=O [Pazopanib],HIF-1α protein level (% of control) at 150 mg/kg,[13]; [16],226 ± 127%
CNC(=O)c1cc(Oc2ccc(NC(=O)Nc3ccc(Cl)c(C(F)(F)F)c3)c(F)c2)ccn1 [Regorafenib],HIF-1α protein level (% of control) at 50 mg/kg,[13]; [16],171 ± 4%
CC[C@@]1(O)C(=O)OCc2c1cc1n(c2=O)Cc2cc3c(CN(C)C)c(O)ccc3nc2-1 [Topotecan],"Inhibition of HIF-2α, in words",[14],unable to significantly inhibit
Aflibercept: antiangiogenic drug,HIF-1Q % of Control mean + SD,"[13]; Aflibercept study, Aflibercept 25 mg/kg Days 1, 4, 8",235 ± 80%
"Bevacizumab: antiangiogenic drug, anti-VEGF antibody",Tumour-initiating capacity of 100 re-implanted tumour cells,[15],enhanced tumour-initiating capacity compared to control
same,HIF-1Q % of Control mean + SD,"[13]; Bevacizumab study, Bevacizumab 5 mg/kg Days 1, 4, 8",127 ± 18%
